The test system of series [1] is S. pyogenes JCM5674(ATCC12344). The series can be described thus: Antibacterial activity (MIC), standard method of the Japanese Society of Chemotherapy. The format is cell-based. The note with it: Streptococcus pyogenes. Here is the method:
(§1) Antibacterial activity of the compounds of the present invention was measured in accordance with the standard method specified by the Japanese Society of Chemotherapy.

A further series deals with E. coli NIHJ. The series is described as above. The format is cell-based. The note with it: Escherichia coli. As for the experimental part: as §1
The test system of a further series is P. aeruginosa PAO1. Described as above. Type of series: cell-based. The note with it: Pseudomonas aeruginosa. As for the experimental part:
as §1

The test system of a further series is S. aureus FDA 209-P. Described as above. Type of series: cell-based. As to conditions: Staphylococcus aureus, FDA209. Here is the method:
as §1

The next series concerns E. faecalis 19433. Described as above. Type of series: cell-based. As to conditions: Enterococcus faecalis. Here is the method:
as §1

The subject of another series is S. epidermidis 56500. Described as above. As to conditions: Staphylococcus epidermidis. The format is cell-based. Here is the method: as §1
The test system of the next series is S. pneumoniae J24. The description is as above. Type of series: cell-based. The note with it: Streptococcus pneumoniae. Here is the method:
as §1

The subject of a further series is P. mirabilis 08103. Described as above. The format is cell-based. The note with it: Proteus mirabilis. Here is the method:
as §1

A further series has as its system S. aureus 870307. The series is described as above. Type of series: cell-based. The note with it: Staphylococcus aureus. As for the experimental part: as §1
Another series concerns S. pneumoniae 104835. The series is described as above. Type of series: cell-based. As to conditions: Streptococcus pneumoniae. Here is the method: as §1
For the next series, the system named is K. pneumoniae TYPE 1. Described as above. The format is cell-based. As to conditions: Klebsiella pneumoniae, TYPE1. Here is the method:
as §1

The subject of a further series is S. marcescens 10100. The series is described as above. As to conditions: Serratia marcescens. Type of series: cell-based. Here is the method:
as §1

From patent publication US8618094B2, “Fused substituted aminopyrrolidine derivative” (Daiichi Sankyo Company, Limited, priority 2007, dated 2013) come the findings set out here.

The structures appear in SMILES notation. ≈ marks a conversion by molar mass, not a printed value. Where a name gives a salt, the structure may show the parent alone.

Usually melting point stands for the temperature, or range, at which the solid turns liquid. The molecule `COc1c(N2CC3(N)CCC4CC43C2)c(F)cc2c(=O)c(C(=O)O)cn([C@@H]3C[C@@H]3F)c12` (stereo partly drawn) (as salt: methanesulfonate) [Example 57, 7-[6-amino-8-azatricyclo[4.3.0.0^1,3]nonan-8-yl]-6-fluoro-1-[(1R,2S)-2-fluorocyclopropan-1-yl]-8-methoxy-4-oxo-1,4-dihydroquinoline-3-carboxylic acid methanesulfonate] returned a melting point of 202 to 204 °C.

Take `COc1c(N2C[C@@H]3CCC[C@]3(N)C2)c(F)cc2c(=O)c(C(=O)O)cn([C@@H]3C[C@@H]3F)c12` (relative stereo) [Example 12, 7-[(1R*,5S*)-1-Amino-3-azabicyclo[3.3.0]octan-3-yl]-6-fluoro-1-[(1R,2S)-2-fluorocyclopropyl]-8-methoxy-1,4-dihydro-4-oxoquinoline-3-carboxylic acid]: the melting point fell in the range of 171 to 174 °C.

Molecule `COc1c(N2C[C@H]3C(CF)C[C@@]3(N)C2)c(F)cc2c(=O)c(C(=O)O)cn([C@@H]3C[C@@H]3F)c12` (single isomer, unassigned) [Example 49] came in with a melting point of 122 to 125 °C.

`COc1c(N2C[C@H]3C(CF)C[C@@]3(N)C2)c(F)cc2c(=O)c(C(=O)O)cn([C@@H]3C[C@@H]3F)c12` (single isomer, unassigned) [Example 50] had a melting point of 193 to 195 °C.

`Cc1c(N2C[C@H]3C(CF)C[C@@]3(N)C2)c(F)cc2c(=O)c(C(=O)O)cn([C@@H]3C[C@@H]3F)c12` (single isomer, unassigned) [Example 51] showed a melting point of 130 to 133 °C.

For `Cc1c(N2CC3(N)CCC4CC43C2)c(F)cc2c(=O)c(C(=O)O)cn([C@@H]3C[C@@H]3F)c12` (single isomer, unassigned) [Example 54], the melting point lay in the range of 145 to 149 °C.

On to `Cc1c(N2CC3(N)CCC4CC43C2)ccc2c(=O)c(C(=O)O)cn([C@@H]3C[C@@H]3F)c12` (single isomer, unassigned) [Example 55], for which the melting point is > 254 °C (dec.).

For the molecule `COc1c(N2CC3(C)CCC3(N)C2)c(F)cc2c(=O)c(C(=O)O)cn([C@@H]3C[C@@H]3F)c12` (stereo in doubt) [Example 7, 7-[(1R,5S)-1-Amino-5-methyl-3-azabicyclo[3.2.0]hept-3-yl]-6-fluoro-1-[(1R,2S)-2-fluorocyclopropyl]-1,4-dihydro-8-methoxy-4-oxoquinoline-3-carboxylic acid], the melting point is 123 to 125 °C.

As to `COc1c(N2CC3(Cl)CCC[C@@]3(N)C2)c(F)cc2c(=O)c(C(=O)O)cn([C@@H]3C[C@@H]3F)c12` (stereo in doubt) [Example 53, 7-[(1R,5R)-1-Amino-5-chloro-3-azabicyclo[3.3.0]octan-3-yl]-6-fluoro-1-[(1R,2S)-2-fluorocyclopropan-1-yl]-1,4-dihydro-8-methoxy-4-oxoquinoline-3-carboxylic acid], the melting point fell in the range of 161 to 163 °C.

A word on the MIC: it is the lowest concentration found to suppress growth. Consider `O=C(O)c1cn(C2CC2)c2cc(N3CCNCC3)c(F)cc2c1=O` [CPFX, ciprofloxacin, reference compound], for which the minimum inhibitory concentration (MIC) is 0.39 µg/mL (≈ 1.18 µM) in series [1]; no more than 0.003 µg/mL against E. coli NIHJ; 0.05 µg/mL (≈ 0.151 µM) with P. aeruginosa PAO1; 0.1 µg/mL (≈ 0.302 µM) against S. aureus FDA 209-P; 0.78 µg/mL (≈ 2.35 µM) in the series with E. faecalis 19433; 0.2 µg/mL (≈ 0.604 µM) against S. epidermidis 56500. Moreover, the minimal inhibitory concentration (MIC) was 0.78 µg/mL (≈ 2.35 µM) in the series with S. pneumoniae J24, 0.012 µg/mL (≈ 0.0362 µM) in the series on P. mirabilis 08103, greater than 6.25 µg/mL in the series with S. aureus 870307 and greater than 6.25 µg/mL in the series with S. pneumoniae 104835.

As to `C[C@H]1C[C@@]2(N)CN(c3c(F)cc4c(=O)c(C(=O)O)cn5c4c3OC[C@@H]5C)C[C@@H]12` [Example 3, 10-{(1S,5R,6S)-1-Amino-6-methyl-3-azabicyclo[3.2.0]hept-3-yl}-9-fluoro-2,3-dihydro-3-(S)-methyl-7-oxo-7H-pyrido[1,2,3-de][1, 4]benzoxazine-6-carboxylic acid], the melting point lay in the range of 122 to 124 °C.

Regarding `COc1c(N2C[C@]3(N)CC[C@]3(F)C2)c(F)cc2c(=O)c(C(=O)O)cn([C@@H]3C[C@@H]3F)c12` [Example 6, 7-[(1R,5S)-1-Amino-5-fluoro-3-azabicyclo[3.2.0]hept-3-yl]-6-fluoro-1-[(1R,2S)-2-fluorocyclopropyl]-1,4-dihydro-8-methoxy-4-oxoquinoline-3-carboxylic acid], the melting point is 235 °C (dec.).

Regarding `C[C@H]1COc2c(N3C[C@]4(N)CCC[C@]4(F)C3)c(F)cc3c(=O)c(C(=O)O)cn1c23` [Example 13, 10-[(1R,5S)-1-Amino-5-fluoro-3-azabicyclo[3.3.0]octan-3-yl]-9-fluoro-2,3-dihydro-3-(S)-methyl-7-oxo-7H-pyrido[1,2,3-de][1,4]benzoxazine-6-carboxylic acid], the melting point was 285 to 293 °C (dec.).

For `N#Cc1c(N2C[C@]3(N)CCC[C@]3(F)C2)c(F)cc2c(=O)c(C(=O)O)cn([C@@H]3C[C@@H]3F)c12` [Example 14, 7-[(1R,5S)-1-Amino-5-fluoro-3-azabicyclo[3.3.0]octan-3-yl]-8-cyano-6-fluoro-1-[(1R,2S)-2-fluorocyclopropan-1-yl]-1,4-dihydro-4-oxoquinoline-3-carboxylic acid], the melting point is 268 to 280 °C (dec.).

`COc1c(N2C[C@H]3[C@H](F)CC[C@@]3(N)C2)c(F)cc2c(=O)c(C(=O)O)cn([C@@H]3C[C@@H]3F)c12` [Example 20, 7-{(1S,5R,6R)-1-Amino-6-fluoro-3-azabicyclo[3,3,0]octan-3-yl}-6-fluoro-1-[(1R,2S)-2-fluorocyclopropyl]-1,4-dihydro-8-methoxy-4-oxoquinoline-3-carboxylic acid]: the melting point lay within 179 to 181 °C.

In turn, `COc1c(N2C[C@H]3[C@@H](F)CC[C@@]3(N)C2)c(F)cc2c(=O)c(C(=O)O)cn([C@@H]3C[C@@H]3F)c12` [Example 21, 7-[(1S,5R,6S)-1-Amino-6-fluoro-3-azabicyclo[3,3,0]octan-3-yl]-6-fluoro-1-[(1R,2S)-2-fluorocyclopropyl]-1,4-dihydro-8-methoxy-4-oxoquinoline-3-carboxylic acid] registered a melting point of 117 to 119 °C.

`COc1c(N2C[C@H]3C(F)(F)CC[C@@]3(N)C2)c(F)cc2c(=O)c(C(=O)O)cn([C@@H]3C[C@@H]3F)c12` [Example 22, 7-[(1S,5R)-1-Amino-6,6-difluoro-3-azabicyclo[3,3,0]octan-3-yl]-6-fluoro-1-[(1R,2S)-2-fluorocyclopropyl]-1,4-dihydro-8-methoxy-4-oxoquinoline-3-carboxylic acid] had a melting point of 239 to 241 °C.

Molecule `Cc1c(N2C[C@H]3CCOC[C@@]3(N)C2)c(F)cc2c(=O)c(C(=O)O)cn([C@@H]3C[C@@H]3F)c12` [Example 41, 7-[(1S,6R)-1-Amino-3-oxa-8-azabicyclo[4,3,0]nonan-8-yl]-6-fluoro-1-[(1R,2S)-2-fluorocyclopropyl]-1,4-dihydro-8-methyl-4-oxoquinoline-3-carboxylic acid] had a melting point of 158 to 160 °C.

Consider `C[C@H]1COc2c(N3C[C@@H]4CCOC[C@@]4(N)C3)c(F)cc3c(=O)c(C(=O)O)cn1c23` [Example 42, 10-[(1S,6S)-1-Amino-3-oxa-8-azabicyclo[4,3,0]nonan-8-yl]-9-fluoro-2,3-dihydro-3-methyl-(S)-7-oxo-7H-pyrido[1,2,3-de][1,4]benzoxazine-6-carboxylic acid], for which the melting point is greater than 300 °C.

As to `Cc1c(N2C[C@]3(N)CC[C@]3(F)C2)c(F)cc2c(=O)c(C(=O)O)cn([C@@H]3C[C@@H]3F)c12` [Example 56, 7-{(1R,5S)-1-Amino-5-fluoro-3-azabicyclo[3.2.0]heptan-3-yl}-6-fluoro-1-[(1R,2S)-2-fluorocyclopropan-1-yl]-8-methyl-4-oxo-1,4-dihydroquinoline-3-carboxylic acid], the melting point was > 272 °C (dec.).

Take `COc1c(N2C[C@H]3COC[C@@]3(N)C2)c(F)cc2c(=O)c(C(=O)O)cn([C@@H]3C[C@@H]3F)c12` [Example 59, 7-[(3aS)-3a-Aminotetrahydrofuro[3,4-c]pyrrol-5-yl]-6-fluoro-1-[(1R,2S)-2-fluorocyclopropyl]-1,4-dihydro-8-methoxy-4-oxoquinoline-3-carboxylic acid]: the melting point is 201 to 202 °C.

Regarding `COc1c(N2C[C@@H]3CCCN[C@@H]3C2)c(F)cc2c(=O)c(C(=O)O)cn(C3CC3)c12` [MXFX, moxifloxacin, reference compound], the MIC in [1] was determined as 0.2 µg/mL (≈ 0.498 µM); against P. aeruginosa PAO1, 0.78 µg/mL (≈ 1.94 µM); with S. aureus FDA 209-P it was 0.05 µg/mL (≈ 0.125 µM); with E. faecalis 19433 it was 0.2 µg/mL (≈ 0.498 µM); with S. epidermidis 56500, 0.1 µg/mL (≈ 0.249 µM); with S. pneumoniae J24, 0.1 µg/mL (≈ 0.249 µM). The MIC against K. pneumoniae TYPE 1 came out at 0.1 µg/mL (≈ 0.249 µM); in the series on P. mirabilis 08103, 0.025 µg/mL (≈ 0.0623 µM); with S. aureus 870307 it was 0.78 µg/mL (≈ 1.94 µM); against S. marcescens 10100, 0.2 µg/mL (≈ 0.498 µM); in the series on S. pneumoniae 104835, 3.13 µg/mL (≈ 7.8 µM).
